Reference: patent US20020054880A1, “Anti-inflammatory, tolerogenic and immunoinhibiting properties of carbohydrate binding-peptides” (priority 1992, published 2002)
Like-named read-outs stand apart in the source and are kept apart here.

Experiments:
[1] = biological target: αNeuAc(2-3)βGal(1-4)βGlcNAc-BSA (Bos taurus, UniProt P02769); settings: conjugate 50 μg/mL, 0.5 μg SPYGRC-b, 1 hour
Method: (§1) Binding assays were carried out essentially as described above using microtiter wells that were coated with 50 μl of BSA glycoconjugate (50 μg/ml) in 50 mM sodium phosphate buffer (pH 6.8) containing 5 mM MgCl2 nd 15 mM NaN3 for 16 hours at 4° C. The solution was removed by aspiration and replaced with 100 μl of 1% BSA in PBS containing 0.05% Tween 20 (PBST) and incubated at room temperature for an additional 2-3 hours. […] After incubating for 1 hour, the binding reaction was stopped by aspirating the solutions and the plate was washed with PBST (4×300 μl). Avidin-peroxidase (100 μl of a 1/3000 dilution of a 1 mg/ml solution in PBST) was added and incubated for an additional 1 hour. After washing the wells as described above, the substrate solution (1 mM ABTS in 5 mM citrate buffer, pH 4.2, containing 0.1% hydrogen peroxide, v/v) was added and the plates were incubated for 30 minutes. Binding assays for each BSA conjugate were done in triplicate and background binding was measured in wells coated with BSA only.

[2] = biological target: αNeuAc(2-3)βGal(1-4)βGlcNAc-BSA (1-3) αFuc (Bos taurus, UniProt P02769); settings: SLe^x; conjugate 50 μg/mL; 0.5 μg SPYGRC-b, 1 hour
αNeuAc(2-3)βGal(1-4)βGlcNAc-BSA (1-3) αFuc, sequence (P02769 25-607): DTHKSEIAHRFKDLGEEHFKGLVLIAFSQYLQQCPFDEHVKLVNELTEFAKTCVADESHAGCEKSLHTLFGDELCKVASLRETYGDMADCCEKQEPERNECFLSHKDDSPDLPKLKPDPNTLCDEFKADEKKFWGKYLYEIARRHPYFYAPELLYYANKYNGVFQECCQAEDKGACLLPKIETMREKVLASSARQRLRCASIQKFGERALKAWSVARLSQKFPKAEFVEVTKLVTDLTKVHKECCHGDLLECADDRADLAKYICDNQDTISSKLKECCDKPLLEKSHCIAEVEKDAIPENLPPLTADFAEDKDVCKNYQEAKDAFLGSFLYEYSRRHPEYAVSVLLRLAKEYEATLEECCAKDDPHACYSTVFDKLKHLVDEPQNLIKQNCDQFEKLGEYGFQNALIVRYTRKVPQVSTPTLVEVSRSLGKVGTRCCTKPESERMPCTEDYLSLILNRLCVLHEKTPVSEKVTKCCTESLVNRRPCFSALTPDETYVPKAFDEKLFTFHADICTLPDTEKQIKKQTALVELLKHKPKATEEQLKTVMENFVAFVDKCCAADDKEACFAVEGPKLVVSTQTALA
Method: as §1

[3] = biological target: αNeuAc(2-3)βGal(1-3)βGlcNAc-BSA (Bos taurus, UniProt P02769); settings: SLe^c; conjugate 50 μg/mL; 0.5 μg SPYGRC-b, 1 hour
αNeuAc(2-3)βGal(1-3)βGlcNAc-BSA, sequence (P02769 25-607): as above
Method: as §1

[4] = biological target: αNeuAc(2-3)βGal(1-3)βGlcNAc-BSA (1-4) αFuc (Bos taurus, UniProt P02769); settings: SLe^a(C19.9); conjugate 50 μg/mL; 0.5 μg SPYGRC-b, 1 hour
αNeuAc(2-3)βGal(1-3)βGlcNAc-BSA (1-4) αFuc, sequence (P02769 25-607): as above
Method: as §1

[5] = biological target: T1, MAL-biotin binding to fetuin (Bos taurus, UniProt P12763); assay: MAL-biotin binding to fetuin, binding inhibition assay; design: species or system Maackia amurensis; settings: + enhancement, − inhibition; for Percent Changes in Binding Activity MAL/fetuin: peptide mg/mL: S2PL 1.2, ACS2P1 1.0, S2(14-2.3) 1.0, S2P2 1.1, S2P3 0.51, S2P4 0.98, S2P6 0.85, S3P1 3.2, S3P2 3.1, S3P3 4.5, S3P4 3.3, S3P5 0.48, S3P9a 1.7, SPYGRC 4.4, S2(WGA) 1.0, WGA (62-73) 1.0
T1 construct: purchased Sigma Chemical Company (fetuin); Boehringer Mannheim (MAL-biotin)
T1 sequence (P12763 19-359): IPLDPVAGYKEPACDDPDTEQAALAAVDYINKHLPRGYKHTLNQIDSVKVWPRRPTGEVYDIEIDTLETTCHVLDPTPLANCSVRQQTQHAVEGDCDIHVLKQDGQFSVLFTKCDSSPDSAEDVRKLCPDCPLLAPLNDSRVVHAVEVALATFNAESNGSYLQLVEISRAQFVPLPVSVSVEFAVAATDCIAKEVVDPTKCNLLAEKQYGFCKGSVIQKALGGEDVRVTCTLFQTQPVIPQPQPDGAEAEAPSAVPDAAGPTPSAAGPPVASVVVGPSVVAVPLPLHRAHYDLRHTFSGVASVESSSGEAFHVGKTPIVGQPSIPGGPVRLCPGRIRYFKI
Method: (§2) Peptides ranging in concentration from 0.5 to 4.5 mg/ml in PBS (40 μl) were added to each well and PT-biotin (10 μl containing 10 ng in PBS) was then added to the microtiter wells. […] Horseradish peroxidase-conjugated avidin (100 μl, 1/3000 dilution in PBST to a concentration of 0.3 μg/ml) was then added to the wells, and the plates were incubated at ambient temperature for 1 hour. […] Color development was recorded at 405 nm using a Titertek Multiskan MC plate reader. […] Binding assays for each peptide were done in duplicate. Binding inhibition experiments utilizing SNA-, WGA-, and MAL-biotin were performed as described above using 10 ng of each biotinylated lectin in PBS.
(§3) Binding assays for each inhibitor concentration were done at least in duplicate, and the average value varied less than 15%.

[6] = biological target: T2, PT-biotin binding to fetuin (Bos taurus, UniProt P12763); assay: PT-biotin binding to fetuin, binding inhibition assay; design: species or system Bordetella pertussis; settings: + enhancement, − inhibition; for Percent Changes in Binding Activity PT/fetuin: peptide mg/mL: S2PL 1.2, ACS2P1 1.0, S2(14-2.3) 1.0, S2P2 1.1, S2P3 0.51, S2P4 0.98, S2P6 0.85, S3P1 3.2, S3P2 3.1, S3P3 4.5, S3P4 3.3, S3P5 0.48, S3P9a 1.7, SPYGRC 4.4, S2(WGA) 1.0, WGA (62-73) 1.0
T2 construct: purchased Sigma Chemical Company (fetuin); Connaught Center for Biotechnology Research (PT)
T2 sequence (P12763 19-359): T1 sequence (P12763 19-359)
Method: as §2, §3

Balb/c mice [7] = assay: Persistence of suppression of DTH response on OVA re-challenge at 2 weeks; type: in vivo; settings: mice treated as in Example 11, re-challenged at 2 weeks; FIG. 3
Excerpt: Identical groups of mice treated with the peptides in Example 11 above, were re-challenged with OVA antigen 2 weeks after primary immunization.

[8] = biological target: T3, SNA-biotin binding to fetuin (Bos taurus, UniProt P12763); assay: biochemical; settings: for Percent Changes in Binding Activity SNA/fetuin: peptide mg/mL: S2PL 1.2, ACS2P1 1.0, S2(14-2.3) 1.0, S2P2 1.1, S2P3 0.51, S2P4 0.98, S2P6 0.85, S3P1 3.2, S3P2 3.1, S3P3 4.5, S3P4 3.3, S3P5 0.48, S3P9a 1.7, SPYGRC 4.4, S2(WGA) 1.0, WGA (62-73) 1.0
T3 sequence (P12763 19-359): T1 sequence (P12763 19-359)
Method: (§4) The solution was removed by aspiration and replaced with 100 μl of 1% BSA in PBS containing 0.05% Tween 20 (PBST). After incubation for 2-4 hours at room temperature, the microtiter wells were washed four times with 300 μl of PBST. Peptides ranging in concentration from 0.5 to 4.5 mg/ml in PBS (40 μl) were added to each well and PT-biotin (10 μl containing 10 ng in PBS) was then added to the microtiter wells. After incubating for 1 hour, the binding reaction was stopped by aspirating the solutions and the plate was washed with PBST (300 μl). Horseradish peroxidase-conjugated avidin (100 μl, 1/3000 dilution in PBST to a concentration of 0.3 μg/ml) was then added to the wells, and the plates were incubated at ambient temperature for 1 hour. After washing the wells as described above, the substrate solution [1 mM ABTS in 5 mM citrate buffer, pH 4.2, containing 0.1% hydrogen peroxide, v/v) was added and the plates were incubated for 30 minutes. Color development was recorded at 405 nm using a Titertek Multiskan MC plate reader. Maximum binding was determined in the absence of peptide, and background binding was measured in wells coated with BSA only. Binding assays for each peptide were done in duplicate. Binding inhibition experiments utilizing SNA-, WGA-, and MAL-biotin were performed as described above using 10 ng of each biotinylated lectin in PBS.

[9] = test system: pertussis toxin binding to Chinese Hamster ovary (CHO) cell; assay: CHO cell neutralization of pertussis toxin (cell clumping); type: cell-based; settings: PT 2.4 ng/ml, peptide and PT 1 hour, triplicate
Method: Confluent monolayers of CHO cells were lifted from plastic tissue culture flasks with 0.25% trypsin and suspended at a concentration of 5×10^4 cells/ml in Ham's F12 media containing 10% fetal bovine serum (FBS). 100 μl of the cell suspension was added to 96 well tissue culture plates and were allowed to establish contact with the plastic for 24 to 48 hours. The expended media was then removed and filtered-sterilized peptide 5-fold dilutions ranging in concentration from 300 to 30 femptogram per ml (80 μl) in Ham' F12 media containing FBS were added to the CHO cells. […] The incubation mixtures were gently mixed and incubated at 37° C. for 1 hour in a CO2 incubator. The incubation mixtures were then removed and replaced with fresh media. The tissue culture plates were then incubated for 24 hours at 37° C., fixed with 100% methanol, and stained with Geimsa stain. Control experiments were done in the absence of peptide alone or in the absence of PT. All determinations were done in triplicate. […] The results reported in Table VIII show the maximum peptide concentration required to cause a 50% reduction in CHO cell clumping.

Balb/c mice [10] = assay: DTH inflammatory response, mouse footpad swelling assay; type: in vivo; settings: 100 μg peptide into the tail vein 5 hours after challenge with 20 μg OVA; FIG. 2
Method: DTH inflammatory responses were measured using the mouse footpad swelling assay as described by Smith and Ziola^64. Briefly, groups of Balb/c mice (about 19-20 grams each) were immunized with 100 μg of the OVA antigen containing 20μg of the adjuvant (DDA—dimethyl-dioctadecylammonium bromide) which also induces a strong inflammatory DTH response. Seven days later, each group of mice was footpad-challenged with 20 μg of the OVA antigen (without adjuvant). The resulting inflammatory footpad swelling was measured with a Mitutoyo Engineering micrometer 24 hours after challenge.
To assess the effect of different peptides on the inflammatory DTH response, groups of mice received 100 μg of the following peptides- ACS2P1 (2275), SPYGRC (2283), and S3P9a. These peptides were injected as a solution into the tail vein, 5 hours after challenge. Control groups were left untreated or received 100 μL of phosphate-buffered saline (PBS).

[11] = biological target: T4, ACS2P1-biotin binding to asialofetuin (Bos taurus, UniProt P12763); assay: Screening of S2 and S3 peptides for inhibition of ACS2P1-biotin binding to asialofetuin; settings: peptide μM: ACS2P1 4.1, S2P2 42.5, SPYGRC 5520, S2P3 22.4, S2P4 6.0, S2P6 319, S3P1 1142, S3P2 934, S3P3 16.1, S3P4 6.4, S3P5 22.5; ACS2P1-biotin 0.1 μg; − inhibition, + enhancement
T4 construct: made in house
T4 sequence (P12763 19-359): T1 sequence (P12763 19-359)

[12] = biological target: T5, ACS2P1-biotin binding to fetuin (Bos taurus, UniProt P12763); assay: biochemical; settings: peptide μM: ACS2P1 4.1, S2P2 42.5, SPYGRC 5520, S2P3 22.4, S2P4 6.0, S2P6 319, S3P1 1142, S3P2 934, S3P3 16.1, S3P4 6.4, S3P5 22.5; ACS2P1-biotin 0.1 μg; − inhibition, + enhancement
T5 construct: purchased Sigma Chemical Company
T5 sequence (P12763 19-359): T1 sequence (P12763 19-359)

[13] = biological target: T6, WGA-biotin binding to fetuin (Bos taurus, UniProt P12763); assay: biochemical; settings: + enhancement, − inhibition
T6 sequence (P12763 19-359): T1 sequence (P12763 19-359)
Method: as §4

[14] = biological target: T7, PT-biotin binding to asialofetuin (Bos taurus, UniProt P12763); assay: PT-biotin binding to asialofetuin, binding inhibition assay; design: species or system Bordetella pertussis; settings: peptide mg/mL: S2PL 1.2, ACS2P1 1.0, S2P2 1.1, S2P3 0.51, S2P4 0.98, S2P6 0.85, S3P1 3.2, S3P2 3.1, S3P3 4.5, S3P4 3.3, S3P5 0.48, SPYGRC 4.4; + enhancement, − inhibition
T7 construct: made in house
T7 sequence (P12763 19-359): T1 sequence (P12763 19-359)
Method: as §2, §3

αNeuAc(2-3)βGal(1-4)βGlcNAc-BSA, sequence (P02769 25-607): as the sequence (P02769 25-607) above

Molecule	% Binding Relative to Fetuin of SPYGRC-b (n = 3) ([1]; SLacNAc (table row r10)) [%]	% Binding Relative to Fetuin of SPYGRC-b (n = 3) ([1]; SLacNAc (table row r12)) [%]	% Binding Relative to Fetuin of SPYGRC-b (n = 3) [2] [%]	% Binding Relative to Fetuin of SPYGRC-b (n = 3) [3] [%]	% Binding Relative to Fetuin of SPYGRC-b (n = 3) [4] [%]	Percent Changes in Binding Activity MAL/fetuin [5]	Percent Changes in Binding Activity PT/fetuin [6]	DTH response (footpad swelling) on later re-challenge with OVA antigen, in words (Balb/c mice [7])	IC50 [8] [mM]	Percent Changes in Binding Activity SNA/fetuin ([8]; + enhancement, − inhibition) [%]	Maximal Inhibitory Concentration for Greater than 50% Inhibition [9]	effect on DTH inflammatory response (footpad swelling 24 hours after challenge), in words (Balb/c mice [10])	Percent Change in Binding Activity Asialofetuin [11] [%]	% Changes in Binding Activity, MAL-5 to fetuin ([5]; SPYGRC peptide 4.4 mg/ml) [%]	% Changes in Binding Activity, PT-b to fetuin ([6]; SPYGRC peptide 4.4 mg/ml)	Percent Change in Binding Activity Fetuin [12] [%]	% Changes in Binding Activity, SNA-b to fetuin ([8]; SPYGRC peptide 4.4 mg/ml, + enhancement, − inhibition) [%]	% Changes in Binding Activity, WGA-b to fetuin ([13]; SPYGRC peptide 4.4 mg/ml)	Percent Changes in Binding Activity WGA/fetuin ([13]; peptide mg/mL: S2PL 1.2, ACS2P1 1.0, S2(14-2.3) 1.0, S2P2 1.1, S2P3 0.51, S2P4 0.98, S2P6 0.85, S3P1 3.2, S3P2 3.1, S3P3 4.5, S3P4 3.3, S3P5 0.48, SPYGRC 4.4, S2(WGA) 1.0, WGA (62-73) 1.0)	Percent Changes in Binding Activity PT/asialo-fetuin [14]
BIOTIN-SPYGRC-CO—NH2 [SPYGRC-b]	120 ± 7	122 ± 5	120 ± 4	97 ± 12	103 ± 8															
CC(C)C[C@H](NC(=O)[C@H](CC(C)C)NC(=O)[C@@H](N)CCCNC(=N)N)C(=O)N[C@@H](C)C(=O)N[C@@H](CO)C(=O)N[C@H](C(=O)N[C@@H](CC(N)=O)C(=O)N[C@@H](CO)C(=O)N[C@@H](CCCNC(=N)N)C(=O)N[C@@H](CC(C)C)C(=O)N[C@@H](CS)C(=O)N[C@@H](C)C(=O)N[C@H](C(=O)N[C@@H](Cc1ccccc1)C(=O)N[C@H](C(=O)N[C@@H](CCCNC(=N)N)C(=O)N[C@@H](CC(=O)O)C(=O)NCC(=O)O)C(C)C)C(C)C)[C@@H](C)O [Peptide S3P9a]						+18 ± 6%	+328 ± 10%	reduced immune response	2.74 ± 0.86	−41 ± 3	NI (Not inhibitory at a peptide concentration of 300 ng/ml.)	effective in reducing a DTH response in mice								
SPYGRC-CO—NH2						−16 ± 0%	+34 ± 2%	reduced immune response		−2 ± 2	480 pg/mL	effective in reducing a DTH response in mice	−54 ± 3	−16 ± 0	+34 ± 2%	−24 ± 2	−2 ± 1	+7 + 3%	+7 ± 3%	+7 ± 9%
